According to PubChem BioAssay AID328 (DTP/NCI, 2004):
Where “and” joins values, the source holds several entries; their conditions need not be identical. Equal entries are not always repeated. Inconclusive results and toxic doses are left out.

System: BDF1 mice, P388 leukemia ip, median survival T/C
Assay: NCI In Vivo Anticancer Drug Screen. Data for tumor model P388 Leukemia (intraperitoneal) in B6D2F1 (BDF1) mice
Details: endpoint: median survival time, higher = longer survival
How it was run: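 In tumour-bearing mice, survival after compound treatment is set against the vehicle group and given as a quotient.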

## CN(Cc1cnc2nc(N)nc(N)c2n1)c1ccc(C(=O)N[C@@H](CCC(=O)O)C(=O)O)cc1
dose: 0.37 mg/kg/injection, schedule: Q01DX009 (ip), vehicle: sodium bicarbonate
  T/C: 172 % of control
dose: 0.38 mg/kg/injection, schedule: Q01DX009 (ip), vehicle: saline
  T/C: 150 % of control and 155 % of control
dose: 0.5 mg/kg/injection, schedule: Q01DX005 (ip), vehicle: saline with Tween-80
  T/C: 113 % of control
dose: 0.5 mg/kg/injection, schedule: Q01DX005 (ip), vehicle: saline
  T/C: 184 % of control
dose: 0.5 mg/kg/injection, schedule: Q01DX009 (ip), vehicle: saline with Tween-80
  T/C: 163 % of control
dose: 0.5 mg/kg/injection, schedule: Q01DX009 (ip), vehicle: sodium bicarbonate
  T/C: 176 % of control
dose: 0.5 mg/kg/injection, schedule: Q01DX010 (ip), vehicle: other
  T/C: 245 % of control
dose: 0.75 mg/kg/injection, schedule: Q01DX009 (ip), vehicle: saline
  T/C: 190 % of control and 195 % of control
dose: 0.75 mg/kg/injection, schedule: Q01DX009 (ip), vehicle: sodium bicarbonate
  T/C: 209 % of control
dose: 0.9 mg/kg/injection, schedule: Q01DX009 (ip), vehicle: sodium bicarbonate
  T/C: 171 % of control and 190 % of control and 203 % of control
dose: 1.0 mg/kg/injection, schedule: Q01DX005 (ip), vehicle: saline with Tween-80
  T/C: 104 % of control
dose: 1.0 mg/kg/injection, schedule: Q01DX005 (ip), vehicle: saline
  T/C: 194 % of control
dose: 1.0 mg/kg/injection, schedule: Q01DX009 (ip), vehicle: saline with Tween-80
  T/C: 181 % of control
dose: 1.0 mg/kg/injection, schedule: Q01DX009 (ip), vehicle: sodium bicarbonate
  T/C: 236 % of control and 150 % of control and 181 % of control
dose: 1.0 mg/kg/injection, schedule: Q01DX010 (ip), vehicle: other
  T/C: 300 % of control
dose: 1.3 mg/kg/injection, schedule: Q01DX009 (ip), vehicle: sodium bicarbonate
  T/C: 228 % of control and 179 % of control and 205 % of control
dose: 1.5 mg/kg/injection, schedule: Q01DX009 (ip), vehicle: saline
  T/C: 229 % of control and 222 % of control
dose: 2.0 mg/kg/injection, schedule: Q01DX009 (ip), vehicle: saline with Tween-80
  T/C: 222 % of control
dose: 2.25 mg/kg/injection, schedule: Q01DX009 (ip), vehicle: sodium bicarbonate
  T/C: 231 % of control
dose: 2.3 mg/kg/injection, schedule: Q01DX009 (ip), vehicle: sodium bicarbonate
  T/C: 227 % of control and 239 % of control and 263 % of control
dose: 3.0 mg/kg/injection, schedule: Q01DX009 (ip), vehicle: saline
  T/C: 231 % of control and 236 % of control
dose: 3.0 mg/kg/injection, schedule: Q01DX009 (ip), vehicle: sodium bicarbonate
  T/C: 95 % of control and 100 % of control
dose: 3.5 mg/kg/injection, schedule: Q01DX009 (ip), vehicle: sodium bicarbonate
  T/C: 241 % of control and 244 % of control and 104 % of control
dose: 8.64 mg/kg/injection, schedule: Q04DX003 (ip), vehicle: sodium bicarbonate
  T/C: 182 % of control
dose: 10.0 mg/kg/injection, schedule: Q04DX004 (ip), vehicle: sodium bicarbonate
  T/C: 243 % of control
dose: 14.4 mg/kg/injection, schedule: Q04DX003 (ip), vehicle: sodium bicarbonate
  T/C: 199 % of control
dose: 15.0 mg/kg/injection, schedule: Q04DX004 (ip), vehicle: sodium bicarbonate
  T/C: 250 % of control
dose: 20.0 mg/kg/injection, schedule: Q04DX003 (ip), vehicle: sodium bicarbonate
  T/C: 221 % of control
dose: 20.0 mg/kg/injection, schedule: Q04DX004 (ip), vehicle: sodium bicarbonate
  T/C: 248 % of control
dose: 24.0 mg/kg/injection, schedule: Q04DX003 (ip), vehicle: sodium bicarbonate
  T/C: 202 % of control
dose: 25.0 mg/kg/injection, schedule: Q04DX003 (ip), vehicle: sodium bicarbonate
  T/C: 292 % of control
dose: 25.0 mg/kg/injection, schedule: Q04DX004 (ip), vehicle: sodium bicarbonate
  T/C: 248 % of control
dose: 30.0 mg/kg/injection, schedule: Q04DX003 (ip), vehicle: sodium bicarbonate
  T/C: 238 % of control
dose: 40.0 mg/kg/injection, schedule: Q04DX003 (ip), vehicle: sodium bicarbonate
  T/C: 237 % of control

## Cc1nc2c(=O)n(C)c(=O)n(C)c2n1C
dose: 50.0 mg/kg/injection, schedule: Q04DX003 (ip), vehicle: saline with Tween-80
  T/C: 100 % of control
dose: 100.0 mg/kg/injection, schedule: Q04DX003 (ip), vehicle: saline with Tween-80
  T/C: 90 % of control
dose: 200.0 mg/kg/injection, schedule: Q04DX003 (ip), vehicle: saline with Tween-80
  T/C: 100 % of control
